# Reference: US20250073184A1, “CANNABIGEROQUINONE COMPOUNDS, COMPOSITIONS INCLUDING SUCH COMPOUNDS, AND USES OF SUCH COMPOUNDS AND COMPOSITIONS” (Juva Life, Inc., priority 2021, published 2025)
# pEC50: −log10 of the molar value.
# What was measured:
# [1] = test system: PANC-1 pancreatic carcinoma cell line; assay: PANC-1 cell line toxicity (Cell titer Glo viability); details: PANC-1, 72 h
# Experimental: The half maximal inhibition concentration (IC50) for each compound was determined by harvesting cells during the logarithmic growth period and then counting cell number using hemocytometer. The cell concentrations were adjusted to 5×10^4 cells/mL with respective culture medium. 30 μL of cell suspensions were added to three 384-well plates with the final cell density of 1.5×10^3 cells/well. Then, using a Biomek FX, test articles were serially diluted (10 mM top, 3× dilution intervals) along with a reference inhibitor (1 mM top, 3× dilution intervals) in acoustic grade Labcyte plate. Then, using an acoustic dispenser (Labcyte550), compounds were added as serially diluted to plate with cells: 90 nL of serially diluted compounds per well. 90 nL DMSO is added to control wells. Test plates were incubated for 72 h in the humidified incubator at 37° C. with 5% CO2. 25 μL of reconstituted Cell titer Glo reagent was added to each well. Each test plate was then incubated for 20 min at room temperature. Luminescence was then recorded using Synergy Neo2Multi-mode Reader.
# In order to calculate intersect IC50, a dose-response curve was fitted using nonlinear regression model with a sigmoidal dose response.
# The formula for calculating surviving rate is shown below, and the intersect IC50 was calculated according to the dose-response curve generated by the software:
# (§1) Culture medium were purchased from ATCC, USA.
# [2] = test system: PC3 prostate adenocarcenoma cell line; assay: PC3 cell line toxicity (Cell titer Glo viability); assay type: cell-based; details: PC3, 72 h
# Experimental: 90 nL DMSO is added to control wells. […] Luminescence was then recorded using Synergy Neo2Multi-mode Reader.
# as §1
# Human COX2 = biological target: T1, Human COX2 (Homo sapiens, UniProt P35354); assay: Biochemical COX-2 assay; details: recombinant enzyme; read-out: Inhibitory Activity EC50, Cox2
# T1 construct: 1-604 (end); purchased BPS Biosciences 71111; host or cells: baculovirus infected Sf9 cells
# T1 sequence (P35354 18-604): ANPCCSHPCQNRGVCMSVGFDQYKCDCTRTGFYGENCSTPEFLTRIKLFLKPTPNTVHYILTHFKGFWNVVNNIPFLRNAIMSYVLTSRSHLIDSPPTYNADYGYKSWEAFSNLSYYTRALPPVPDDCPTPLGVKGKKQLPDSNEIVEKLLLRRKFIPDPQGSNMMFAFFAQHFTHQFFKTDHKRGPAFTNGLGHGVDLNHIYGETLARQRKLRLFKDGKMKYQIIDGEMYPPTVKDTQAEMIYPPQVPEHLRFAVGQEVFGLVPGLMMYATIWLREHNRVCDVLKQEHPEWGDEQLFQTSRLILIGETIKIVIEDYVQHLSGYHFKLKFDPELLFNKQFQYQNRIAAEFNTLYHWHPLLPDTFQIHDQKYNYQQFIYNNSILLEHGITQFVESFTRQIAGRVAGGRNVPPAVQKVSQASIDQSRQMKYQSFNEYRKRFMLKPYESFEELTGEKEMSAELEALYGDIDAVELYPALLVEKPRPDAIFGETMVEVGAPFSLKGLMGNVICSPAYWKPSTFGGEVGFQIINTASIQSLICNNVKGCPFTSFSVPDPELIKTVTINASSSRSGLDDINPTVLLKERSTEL
# Description: • Human COX2, GenBank Accession No. NM_000963, a.a. 1-604 (end), with C-terminal FLAG-His-tag, MW=71 kDa, expressed in a baculovirus infected Sf9 cell expression system was obtained from BPS Biosciences (Catalog #71111) • Cyclooxygenase (COX) Activity Assay Kit (Fluorometric) was obtained from Abcam (Catalog #ab204699) • Other reagents: black 384 well assay plates were obtained from Corning (Cat #3820). • Equipment: Synergy Neo2 Multi-mode plate reader (Biotek), Labcyte 550 acoustic dispenser (Labcyte), Biomek FX robotic dispenser (Beckman Coulter), Sorvall Legend RT centrifuge (Kendro).
# Serially diluted compounds were prepared in DMSO in Echo qualified 384 well plates. An assay buffer was then prepared, and supplemented with Cox cofactor and fluorogenic probe as described in the Cox activity kit manual. […]
# Serially diluted compounds were added to the assay plate by acoustic dispensing (Labcyte 550). […] Afterwards, the plate was read on a Synergy Neo2 in fluorescence mode: excitation 535 nm, emission 590 nm. % inhibition of the compound was calculated using following equation:
# where RFU100% is fluorescence in control samples without compound, RFU0% is fluorescence in control samples without COX-2, and RFU compound fluorescence in a sample with compound.
# The calculated %-Inh values were then plotted against compound concentration. […]
substance,measurement,setting,value
Cannabigerol Quinone [Formula VI],higher tolerance of PANG-1 cells to the compound than staurosporine,[1],more than 750 fold
same,Cell Viability (%),[1]; 0.00017 uM,106.6%
same,Cell Viability (%),[1]; 0.00051 uM,107.5%
same,Cell Viability (%),[1]; 0.0015 uM,100.4%
same,Cell Viability (%),[1]; 0.0046 uM,104.2%
same,Cell Viability (%),[1]; 0.014 uM,100.2%
same,Cell Viability (%),[1]; 0.041 uM,99.9%
same,Cell Viability (%),[1]; 0.12 uM,99.2%
same,Cell Viability (%),[1]; 0.37 uM,98.6%
same,Cell Viability (%),[1]; 1.1 uM,102.6%
same,Cell Viability (%),[1]; 3.3 uM,95.7%
same,Cell Viability (%),[1]; 10 uM,99.4%
same,Cell Viability (%),[1]; 30 uM,99.8%
same,pEC50,[1]; read-out: EC50 (cell viability),< 4.52
same,pEC50,[2],< 4.52
same,higher tolerance of PC3 cells to the compound than staurosporine,[2],"more than 10,000 fold"
same,Cell Viability (%),[2]; 0.00017 uM,97.4%
same,Cell Viability (%),[2]; 0.00051 uM,100.9%
same,Cell Viability (%),[2]; 0.0015 uM,96.0%
same,Cell Viability (%),[2]; 0.0046 uM,96.9%
same,Cell Viability (%),[2]; 0.014 uM,96.5%
same,Cell Viability (%),[2]; 0.041 uM,95.9%
same,Cell Viability (%),[2]; 0.12 uM,96.0%
same,Cell Viability (%),[2]; 0.37 uM,97.7%
same,Cell Viability (%),[2]; 1.1 uM,94.0%
same,Cell Viability (%),[2]; 3.3 uM,94.6%
same,Cell Viability (%),[2]; 10 uM,91.2%
same,Cell Viability (%),[2]; 30 uM,84.5%
same,pEC50,Human COX2,4.22
